Design: species or system White New Zealand male rabbits
Details: rabbit, in vivo, sc, 18 mg/kg
Protocol: The study was performed in 6 White New Zealand male rabbits (body weight: 3.63±0.17 kg; min-max 3.47-3.88 kg) and included MS1 and MS2 loaded at 40 mg/mL of teicoplanin (Sigma, T-0578).
Briefly, teicoplanin was reconstituted in water for injection at the concentration of […] (100 mL). Sterile dry beads (≈6 mL in 5% glucose) were hydrated/loaded in the teicoplanin solution (20 mL) with continuous agitation on rotating wheel (≈30 rpm). After 20 min, the supernatant was retrieved and kept for drug quantification. Microspheres (MS1 and MS2) were then washed in water, and kept on shell until the time of administration. At the time of injection, MS were suspended in saline and the appropriate volume of bead (≈4 mL) suspension was sampled for injection at a ratio of 2:1 MS/saline (Table 7). Each microsphere was administered once subcutaneously at the same dose of drug at two injection sites to 2 animals. Teicoplanin control (Sigma, T-0578) was administered once in one animal and repeated daily in another animal. […]
A vascular access was gained in the auricular artery for blood sampling and in auricular vein for perfusion. […] The lowest limit of quantification of the method (LOQ) is 2.0 mg/L. The results of plasmatic assay of teicoplanin are reported in table 8 and in FIG. 7.

With teicoplanin [Injectable teicoplanin] the Teicoplanin serum concentration was under 2.0 mg/L.

Reference: US20230241158A1, “Hydrophilic Degradable Microspheres for Local Delivering of Glycopeptide Antibiotics and Polycationic Peptide Antibiotics” (priority 2020, published 2023)
